{"source": "patent US20060167229A1", "about": "“Biologically active peptide conjugates” (priority 2002, published 2006)", "assay": "Body weight of rats on high nutrition diet (over-feeding obesity model)", "assay_type": "in vivo, Sprague-Dawley (SD) rats", "protocol": "Healthy rats were fed with high nutrition diet for 5 weeks, with or without simultaneous peptide treatment (intramuscular 300 μg/kg/day). Rats on an ordinary diet with saline injection were used as negative control. After 5 weeks of treatment, injection was stopped and the same diet was maintained for another three weeks. Body weight data was collected at once per week interval. Behaviour of the rats was also observed. […] It is concluded that CMS015 at suitable dosage level can reversibly control obesity development induced by over-feeding.\nSprague-Dawley (SD) rats, weighing 145±10 g, were supplied by the Center of Experimental Animal of Guangzhou University of Traditional Chinese Medicine, PR China (certificate No.: 2000A019). Peptides were custom synthesized (of L-amino acids origin) by American Peptide Company, Inc., USA, and were diluted to 10 μg/ml in normal saline. The high and normal nutrition diets were prepared in compliance with the guideline for pre-clinical research of anti-obesity drug, issued by SDA (State Drug Administration), PR China^[1].\nHealthy rats were randomized into the experiment, positive control, and negative control groups. 10 rats per group, half male and half female. The experiment group of rats was fed with high nutrition diet for 5 weeks with simultaneous intramuscular injection of 300 μg/kg/day peptide, once per day. Positive control group received the same high nutrition diet but placebo saline injection, while negative control group, used to proof successful establishment of obesity model, received normal nutrition diet and placebo saline injection. After 5 weeks treatment, injection was stopped and the same diet was maintained for another 3 weeks. The rats were weighed at once per week interval. Behaviour of the rats was also observed.\nThe data were presented as mean±standard deviation. Paired t test or single-factor ANOVA was used for inter and intra group comparison. Statistical significance cut-off was at P≦0.05.", "data": [{"substance": "Pro Ser Ile Vat Gly Arg Pro Arg His Gln Gly Val Met (PSIVGRPRHQGVM; listed as Sus scrofa) [CMS015]", "values": [{"measurement": "difference of the treatment and control groups upon termination of peptide treatment", "setting": "300 μg/kg/day i.m. for 5 weeks, then 3 weeks same diet without injection", "result": "gradually reduced and became statistically insignificant after three weeks"}, {"measurement": "body weight", "setting": "Female n = 5, Pre-treatment, positive control 133.6 ± 4.6", "result": "129.2 ± 3.3", "unit": "g"}, {"measurement": "body weight", "setting": "Female, Week 1, 300 μg/kg/day i.m., high nutrition diet, positive control 164.4 ± 8.7", "result": "157.8 ± 8.3", "unit": "g"}, {"measurement": "body weight", "setting": "Female, Week 2, 300 μg/kg/day i.m., high nutrition diet, positive control 188.0 ± 6.4", "result": "176.0 ± 11.2", "unit": "g"}, {"measurement": "body weight", "setting": "Female, Week 3, 300 μg/kg/day i.m., high nutrition diet, positive control 208.8 ± 8.2", "result": "196.0 ± 10.5", "unit": "g"}, {"measurement": "body weight", "setting": "Female, Week 4, 300 μg/kg/day i.m., high nutrition diet, positive control 227.2 ± 8.2", "result": "212.0 ± 13.5", "unit": "g"}, {"measurement": "body weight", "setting": "Female, Week 5, 300 μg/kg/day i.m., high nutrition diet, positive control 236.6 ± 10.9", "result": "221.4 ± 13.2", "unit": "g"}, {"measurement": "body weight", "setting": "Female, Week 6 (injection stopped after week 5), positive control 249.4 ± 16.3", "result": "235.6 ± 16.3", "unit": "g"}, {"measurement": "body weight", "setting": "Female, Week 7 (injection stopped after week 5), positive control 261.2 ± 13.4", "result": "242.2 ± 18.8", "unit": "g"}, {"measurement": "body weight", "setting": "Female, Week 8 (injection stopped after week 5), positive control 255.6 ± 11.5", "result": "252.8 ± 22.5", "unit": "g"}, {"measurement": "body weight", "setting": "Male n = 5, Pre-treatment, positive control 145.6 ± 13.6", "result": "145.6 ± 8.5", "unit": "g"}, {"measurement": "body weight", "setting": "Male, Week 1, 300 μg/kg/day i.m., high nutrition diet, positive control 194.4 ± 14.5", "result": "183.8 ± 10.6", "unit": "g"}, {"measurement": "body weight", "setting": "Male, Week 2, 300 μg/kg/day i.m., high nutrition diet, positive control 239.6 ± 13.4", "result": "220.6 ± 12.2", "unit": "g"}, {"measurement": "body weight", "setting": "Male, Week 3, 300 μg/kg/day i.m., high nutrition diet, positive control 265.0 ± 11.8", "result": "239.0 ± 16.0", "unit": "g"}, {"measurement": "body weight", "setting": "Male, Week 4, 300 μg/kg/day i.m., high nutrition diet, positive control 287.4 ± 17.7", "result": "258.2 ± 18.1", "unit": "g"}, {"measurement": "body weight", "setting": "Male, Week 5, 300 μg/kg/day i.m., high nutrition diet, positive control 299.4 ± 21.2", "result": "268.8 ± 17.7", "unit": "g"}, {"measurement": "body weight", "setting": "Male, Week 6 (injection stopped after week 5), positive control 333.4 ± 27.1", "result": "299.4 ± 21.2", "unit": "g"}, {"measurement": "body weight", "setting": "Male, Week 7 (injection stopped after week 5), positive control 349.2 ± 28.9", "result": "310.4 ± 25.9", "unit": "g"}, {"measurement": "body weight", "setting": "Male, Week 8 (injection stopped after week 5), positive control 374.4 ± 37.2", "result": "337.4 ± 30.6", "unit": "g"}]}]}
